Measured values as given in US20240123079A1 (Seagen Inc., priority 2021, published 2024).
Several values for one entry are separate records, joined by “and”; a condition that tells them apart may be missing. Equal values may be shown once.

Experiments:
[1] = system: THP1-Dual™ reporter cells; assay: THP1-Dual cell reporter assay (IRF-Lucia luciferase reporter); type: cell-based, human; details: for EC50: Homo sapiens, THP1-Dual, free compounds, 24 h, Lucia reporter signal, read-out: EC50; for potency relative to other free compound: free drug
Method in brief: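 THP1-Dual monocytic cells (~100,000/well) were exposed to compound for 24 h (ADCs 48 h). Secreted IRF-driven Lucia luciferase in the supernatant was quantified by QUANTI-Luc luminescence.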

[2] = system: BxPC3; assay: Cancer cell direct cytotoxicity assay (CellTiter-Glo), BxPC3; type: cell-based; details: Homo sapiens, BXPC-3; BxPC3, 96 h, free compound; read-out: Compound X50
Procedure: (§1) Bystander activity of ADCs was evaluated using Renca cancer cells and THP1-Dual™ cells (InvivoGen) which contain an IRF-Lucia luciferase reporter. Cells were cultured in RPMI-1640 (Gibco) with 10% heat-inactivated fetal bovine serum, Pen-Strep (100 U/ml-100 μg/ml, Gibco), HEPES (10 mM, Gibco), sodium pyruvate (1 mM, Gibco), MEM non-essential amino acids (1×, Gibco), GlutaMAX (1×, Gibco), and beta-mercaptoethanol (55 μM, Gibco). Renca cells were plated in a 96-well flat bottom tissue culture-treated clear polystyrene plate (Corning Costar #3596) at 50,000 cells per well in 100 μL. On the day following the initial plating, 50,000 THP1-Dual™ cells were added to each well with the indicated concentration of ADC in a total volume of 200 μL. Supernatant was harvested at 48 hours post addition of the THP1-Dual™ cells. To measure Lucia reporter signal, 10 μL of supernatant was combined with 40 μL of QUANTI-Luc™ Luminescence assay reagent (Invivogen PN: rep-qlc1) in a 96-well clear flat bottom tissue culture-treated black polystyrene plate (Corning Costar PN: 3603) and read on a Perkin Elmer Envision plate reader. In some experiments, HEK 293T cells engineered to express a murine protein typically expressed by immune cells (target antigen C— an immune cell antigen) were plated as above instead of Renca tumor cells. Cancer Cell Direct Cytotoxicity Assay
(§2) Cancer cells were counted and plated in 40 μL complete growth media in 384-well, white-walled tissue culture treated plates (Corning). Cell plates were incubated at 37° C. and with 5% CO2 overnight to allow the cells to equilibrate. Stock solutions containing ADCs or free drugs were serially diluted in RPMI-1640+20% fetal bovine serum (FBS). 10 μL of each concentration were then added to each cell plate in duplicate. Cells were then incubated at 37° C. and with 5% CO2 for 96 hours, upon which, the cell plates were removed from the incubator and allowed to cool to room temperature for 30 minutes prior to analysis. […] The luminescence of the samples was measured using an EnVision Multimode plate reader (Perkin Elmer, Waltham, MA). […]

[3] = system: DEL; assay: Cancer cell direct cytotoxicity assay (CellTiter-Glo), DEL; type: cell-based; details: Homo sapiens, 96 h, free compound, read-out: Compound X50
Procedure: as §1, §2

[4] = system: Ls174T; assay: Cancer cell direct cytotoxicity assay (CellTiter-Glo), Ls174T; type: cell-based; details: Homo sapiens, 96 h, free compound, read-out: Compound X50
Procedure: as §1, §2

[5] = In vivo cytokine assay, plasma of CT26 tumor-bearing mice; set-up: species or system mouse; details: 1.86 mg/kg
Procedure: Cytokines were measured in mouse plasma harvested at 3, 6, 24, or 48 hours after treatment with compounds or ADCs using a Milliplex MAP mouse cytokine/chemokine magnetic bead panel assay kit (MCYTOMAG-70k custom 11-plex kit: MCP1, MIP1α, MIP1β, TNFα, IFNγ, IL-10, IL-12p70, IL-6, IL-1β, IP10, RANTES) and analyzed using a Luminex™ MAGPIX™ Instrument System. Values that were outside of the standard curve range (<3.2 or […]) were excluded from calculation of the mean values.

[6] = system: CT26 cancer cells; assay: CT26 tumor model, in vivo anti-tumor activity; set-up: species or system mouse; details: CT26 tumor-bearing mice, q7dx3
Procedure: CT26 cancer cells (ATCC) were cultured in RPMI 1640 modified with 1 mM Sodium Pyruvate, 10 mM HEPES, 2.8 mL 45% Glucose (1.25 g) and supplemented with 10% fetal bovine serum and 1% Pen/Strep/Glutamine. CT26 cancer cells were implanted ([…] in 200 uL serum-free RPMI 1640) subcutaneously into Balb/c mice.

SMILES: CCn1nc(C)cc1C(=O)Nc1nc2cc(C(N)=O)cc(O)c2n1C/C=C/Cn1c(NC(=O)c2cc(C)nn2CC)nc2cc(C(N)=O)cc(OC)c21 [Compound 1, (E)-1-(4-(5-carbamoyl-2-(1-ethyl-3-methyl-1H-pyrazole-5-carboxamido)-7-hydroxy-1H-benzo[d]imidazol-1-yl)but-2-en-1-yl)-2-(1-ethyl-3-methyl-1H-pyrazole-5-carboxamido)-7-methoxy-1H-benzo[d]imidazole-5-carboxamide]
- EC50 [1]: 5 nM
- potency relative to other free compound [1]: significantly more potent
- IC50 [2]: > 1000 nM
- IC50 [3]: 2 nM
- IC50 [4]: > 1000 nM
- IL-6 in peripheral blood (plasma) ([5]; 3 h): 622.1 and 781.4 and 1128.3
- IP-10 in peripheral blood (plasma) ([5]; 3 h): 1439.4 and 1501.7 and 1160.7
- MCP-1 in peripheral blood (plasma) ([5]; 3 h): 73.7 and 78.6 and 110.3
- MIP1b in peripheral blood (plasma) ([5]; 3 h): 297.7 and 336.8 and 224
- MIP-1a in peripheral blood (plasma) ([5]; 3 h): 3.9 and 3.2
- TNFa in peripheral blood (plasma) ([5]; 3 h): 3.2 and 4.9 and 4.3
- IL-6 in peripheral blood (plasma) ([5]; 6 h): 2652.5 and 2393.5 and 2412.7
- IP-10 in peripheral blood (plasma) ([5]; 6 h): 2610.8 and 2133.6 and 2473.4
- MCP-1 in peripheral blood (plasma) ([5]; 6 h): 3185.3 and 2816.3 and 1634.8
- MIP-1a in peripheral blood (plasma) ([5]; 6 h): 94.6 and 93.6 and 73.9
- TNFa in peripheral blood (plasma) ([5]; 6 h): 16.9 and 16.6 and 10
- IL-6 in peripheral blood (plasma) ([5]; 24 h): 44.5 and 31.8 and 36.5
- IL-10 in peripheral blood (plasma) ([5]; 24 h): 3.2
- IP-10 in peripheral blood (plasma) ([5]; 24 h): 1121.6 and 1025.3 and 696.2
- MCP-1 in peripheral blood (plasma) ([5]; 24 h): 397.7 and 294.7 and 305.9
- IL-10 in peripheral blood (plasma) ([5]; 48 h): 3.2
- IP-10 in peripheral blood (plasma) ([5]; 48 h): 560.1 and 398.8 and 560
- tumor growth delay [6]: minimal tumor growth delay

SMILES: CCn1nc(C)cc1C(=O)Nc1nc2cc(C(N)=O)cc(OC)c2n1C/C=C/Cn1c(NC(=O)c2cc(C)nn2CC)nc2cc(C(N)=O)cc(OCCCNC)c21 [Compound 12a]
- EC50 [1]: 21 nM
- potency relative to other free compound [1]: less potent than compound 1 and compound A
- IC50 [2]: > 1000 nM
- IC50 [3]: 3 nM
- IC50 [4]: > 1000 nM
